This is an account of results in patent publication US20100056468A1, “Pyrimidine Derivatives As Anticancer Agents” (University Health Network, priority 2007, published 2010).

What all share (experiment): In vitro cell proliferation assay (WST.1, Table 5)
One experiment deals with MCF7. It counts as cell-based. The note with it: Homo sapiens, 72 h; MCF7, day 3. As for the experimental part:
(§1) These cell lines were grown in Iscove's MDM supplemented with 5% fetal calf serum (FCS), 50 μM 2-mercaptoethanol, 100 μg/ml penicillin, and 100 μg/ml streptomycin. Cell lines growing in suspension were maintained at 0.5-1.5×10^6 cell/ml, while adherent cell lines were maintained at subconfluent densities.
(§2) Cell lines were seeded in triplicate at 10^4 cells/100 μl in 96-well plates. Peripheral blood mononuclear cells were seeded in triplicate at 10^5 cells/100 μl in 96-well plate. Different test compounds were added immediately at final concentrations ranging between 0 to 100 μM. All compounds were dissolved in sterile deionized water, so water was added to the control wells. On day 3, WST.1 assay (Roche) was used to measure the effect of different test compounds on cell growth. WST.1 assay is a calorimetric assay for the nonradioactive quantification of cell proliferation, cell viability, and cytotoxicity. The assay was performed according to manufacturer's instructions (Roche). It relies on the cleavage by cellular enzymes of WST.1 (water soluble tetrazolium salt: 4-[3-(4-iodophenyl)-2-(4-nitrophenyl)-2H-5-tetrazolio]-1,3-benzene disulfonate) to formazan. The amount of formazan dye formed correlates to the number of metabolically active cells in the culture and is readily read in an ELISA microplate reader using an absorbance wavelength of 440 nm. These OD values are plotted against concentrations of different compounds and IC50 is determined for each compound.

Another experiment deals with T47D. It counts as cell-based. The following applies: Homo sapiens, 72 h, day 3. The protocol: as §1, §2
Another experiment concerns OCI-AML-1. The experiment is classed as cell-based. The following applies: Homo sapiens, 72 h; OCI-AML-1, day 3. As for the experimental part: as §1, §2
The subject of another experiment is OCI-AML-2. It counts as cell-based. The note with it: Homo sapiens, OCI-AML2, 72 h; OCI-AML-2, day 3. As for the experimental part: as §1, §2
Another experiment relates to SKW3. The experiment is classed as cell-based. The following applies: Homo sapiens, 72 h; SKW3, day 3. As for the experimental part:
as §1, §2

The subject of the next experiment is PC3. It counts as cell-based. The following applies: Homo sapiens, PC-3, 72 h; PC3, day 3. The protocol:
as §1, §2

The test system of a further experiment is OCI-Ly-7. It counts as cell-based. The note with it: Homo sapiens, OCI-Ly7, 72 h; OCI-Ly-7, day 3. As for the experimental part: as §1, §2
In another experiment the test system is MDA468. It counts as cell-based. The note with it: Homo sapiens, 72 h; MDA468, day 3. As for the experimental part:
as §1, §2

The next experiment has as its system OCVR4. It counts as cell-based. The following applies: Homo sapiens, 72 h; OCVR4, day 3. The protocol: as §1, §2
The test system of a further experiment is HS58T. The experiment is classed as cell-based. The note with it: Homo sapiens, 72 h, day 3. As for the experimental part: as §1, §2
The test system of the next experiment is CCD967. The experiment is classed as cell-based. The note with it: Homo sapiens, CCD-967, 72 h; CCD967 normal skin line, day 3. The protocol:
as §1, §2

The next experiment relates to OCI-My-2. The experiment is classed as cell-based. The note with it: Homo sapiens, 72 h; OCI-My-2, day 3. As for the experimental part:
as §1, §2

The subject of the next experiment is SNB19. The experiment is classed as cell-based. The following applies: Homo sapiens, SNB-19, 72 h; SNB19, day 3. The protocol: as §1, §2
In the next experiment the test system is COLO205. The experiment is classed as cell-based. The following applies: Homo sapiens, COLO 205, 72 h; COLO205, day 3. As for the experimental part: as §1, §2
The test system of a further experiment is LOX. It counts as cell-based, human. The following applies: Homo sapiens, 72 h, day 3. The protocol:
as §1, §2

pIC50: −log10 of the molar value.

Regarding `N#Cc1cc(=O)[nH]c(=O)n1[C@@H]1O[C@H](CO)C(O)C1O` (stereo partly drawn), the pIC50 in the experiment with MCF7, in the experiment on T47D, in the experiment on OCI-AML-1, in the experiment with OCI-AML-2, with SKW3 and with PC3 was less than 4.30 throughout. Besides, the pIC50 with OCI-Ly-7, in the experiment on MDA468, with OCVR4, in the experiment on HS58T, with CCD967 and in the experiment with OCI-My-2 was less than 4.30 each time. Also, the pIC50 in the experiment with SNB19, with COLO205 and in the experiment with LOX was less than 4.30 in each case.

As for `O=c1cc(I)n([C@@H]2O[C@H](CO)C(O)C2O)c(=O)[nH]1` (stereo partly drawn), the pIC50 – broadly, the negative decadic logarithm of the IC50, by convention in mol/L – was less than 4.30 in the experiment on MCF7; less than 4.30 in the experiment on T47D; 4.82 with OCI-AML-1; less than 4.30 in the experiment with OCI-AML-2; 4.72 in the experiment on SKW3; less than 4.30 in the experiment on PC3. The pIC50 was less than 4.30 in the experiment on OCI-Ly-7; less than 4.30 in the experiment with MDA468; less than 4.30 with OCVR4; less than 4.30 in the experiment with HS58T; less than 4.30 in the experiment on CCD967; 4.56 with OCI-My-2. Besides, the pIC50 with SNB19, with COLO205 and with LOX was less than 4.30 in each case.

Consider `CCOC(=O)c1cc(=O)[nH]c(=O)n1[C@@H]1O[C@H](CO)C(O)C1O` (stereo partly drawn), for which the pIC50 with MCF7, in the experiment with T47D, in the experiment on OCI-AML-1, with OCI-AML-2, in the experiment with SKW3 and in the experiment on PC3 was less than 4.30 each time. The pIC50 with OCI-Ly-7 is less than 4.30; in the experiment with MDA468 it was less than 4.30; in the experiment on OCVR4, less than 4.30; in the experiment on HS58T, less than 4.30; in the experiment with CCD967 it was less than 4.30; in the experiment with OCI-My-2, 4.37. Also, the pIC50 in the experiment on SNB19, in the experiment on COLO205 and in the experiment on LOX was less than 4.30 throughout.

`[N-]=[N+]=Nc1cc(=O)[nH]c(=O)n1[C@@H]1O[C@H](CO)C(O)C1O` (stereo partly drawn): the pIC50 in the experiment with MCF7, in the experiment on T47D, in the experiment on OCI-AML-1, in the experiment with OCI-AML-2, in the experiment with SKW3 and with PC3 was less than 4.30 each time. The pIC50 with OCI-Ly-7, in the experiment on MDA468, in the experiment on OCVR4, with HS58T, with CCD967 and with OCI-My-2 was less than 4.30 each time. Further, the pIC50 in the experiment on SNB19, in the experiment on COLO205 and in the experiment on LOX was less than 4.30 in each case.

As for `Nc1cc(=O)[nH]c(=O)n1[C@@H]1O[C@H](CO)C(O)C1O` (stereo partly drawn), the pIC50 in the experiment on MCF7, in the experiment on T47D, in the experiment on OCI-AML-1, in the experiment on OCI-AML-2, in the experiment with SKW3 and in the experiment on PC3 was less than 4.30 each time. The pIC50 with OCI-Ly-7, in the experiment on MDA468, in the experiment on OCVR4, in the experiment on HS58T, with CCD967 and with OCI-My-2 was less than 4.30 throughout. For the same compound, the pIC50 with SNB19, with COLO205 and with LOX was less than 4.30 each time.

Turning to `CC(=O)OCC1OC(n2c(I)cc(=O)[nH]c2=O)C(O)C1O` (stereo not drawn), the pIC50 with MCF7 is 5.36; with T47D, less than 4.30; in the experiment on OCI-AML-1 it was 4.82; in the experiment with OCI-AML-2, 4.93; in the experiment with SKW3, 5.80; with PC3 it was less than 4.30. Also, the pIC50 with OCI-Ly-7 was 4.44; in the experiment with MDA468 it was less than 4.30; in the experiment on OCVR4, less than 4.30; in the experiment on HS58T it was less than 4.30; with CCD967 it was less than 4.30; in the experiment on OCI-My-2 it was 5.89. The negative-log IC50 (pIC50) in the experiment on SNB19 was less than 4.30; with COLO205, less than 4.30; with LOX, 5.96.

Regarding `Cc1cc(=O)[nH]c(=O)n1C1OC(CO)C(O)C1O` (stereo not drawn), the pIC50 in the experiment on MCF7, with T47D, in the experiment with OCI-AML-1, with OCI-AML-2, in the experiment with SKW3 and with PC3 was less than 4.30 each time. The pIC50 in the experiment on OCI-Ly-7, in the experiment with MDA468, in the experiment on OCVR4, in the experiment with HS58T, with CCD967 and in the experiment with OCI-My-2 was less than 4.30 in each case. In addition, the pIC50 in the experiment with SNB19, in the experiment with COLO205 and with LOX was less than 4.30 in each case.

As for `O=c1[nH]c(=O)n([C@@H]2O[C@H](CO)C(O)C2O)c(I)c1Br` (stereo partly drawn), the pIC50 in the experiment on MCF7, with T47D, with OCI-AML-1, in the experiment with OCI-AML-2, in the experiment on SKW3 and in the experiment with PC3 was less than 4.30 in each case. Moreover, the pIC50 with OCI-Ly-7, in the experiment with MDA468, with OCVR4, with HS58T, in the experiment on CCD967 and in the experiment on OCI-My-2 was less than 4.30 throughout. Moreover, the pIC50 in the experiment with SNB19, with COLO205 and with LOX was less than 4.30 in each case.

With `CNc1cc(=O)[nH]c(=O)n1C1OC(CO)C(O)C1O` (stereo not drawn), the pIC50 with MCF7, in the experiment on T47D, in the experiment with OCI-AML-1, in the experiment with OCI-AML-2, with SKW3 and with PC3 was less than 4.30 in each case. The pIC50 in the experiment on OCI-Ly-7, with MDA468, in the experiment on OCVR4, in the experiment on HS58T, in the experiment with CCD967 and with OCI-My-2 was less than 4.30 throughout. The pIC50 in the experiment with SNB19, in the experiment with COLO205 and in the experiment with LOX was less than 4.30 throughout.

On to `CN(C)c1cc(=O)[nH]c(=O)n1C1OC(CO)C(O)C1O` (stereo not drawn), for which the pIC50 with MCF7, with T47D, with OCI-AML-1, in the experiment on OCI-AML-2, in the experiment with SKW3 and with PC3 was less than 4.30 in each case. In addition, the pIC50 in the experiment with OCI-Ly-7, in the experiment on MDA468, with OCVR4, in the experiment on HS58T, with CCD967 and with OCI-My-2 was less than 4.30 throughout. Also, the pIC50 in the experiment on SNB19, with COLO205 and with LOX was less than 4.30 each time.

For `Cc1cc(=O)[nH]c(=O)n1C1CC(O)C(CO)O1` (stereo not drawn), the pIC50 in the experiment with MCF7, in the experiment on OCI-AML-1, with OCI-AML-2, with SKW3, in the experiment with OCI-Ly-7 and with MDA468 was less than 4.30 in each case. The pIC50 in the experiment with OCI-My-2 and in the experiment with LOX was less than 4.30 each time.

On to `O=C1C/C(=N\O)N(C2OC(CO)C(O)C2O)C(=O)N1` (stereo not drawn), for which the pIC50 with MCF7, in the experiment with OCI-AML-1, in the experiment on OCI-AML-2, with SKW3, in the experiment with OCI-Ly-7 and with MDA468 was less than 4.30 in each case. The pIC50 in the experiment on OCI-My-2 and in the experiment on LOX was less than 4.30 in each case.

With `O=Cc1cc(=O)[nH]c(=O)n1C1OC(CO)C(O)C1O` (stereo not drawn), the pIC50 with MCF7, in the experiment on OCI-AML-1, in the experiment with OCI-AML-2, in the experiment with SKW3, with OCI-Ly-7 and in the experiment with MDA468 was less than 4.30 in each case. Also, the pIC50 with OCI-My-2 and with LOX was less than 4.30 each time.

On to `O=c1[nH]cc(F)c(=O)[nH]1` [5-Fluoro-uracil, reference compound], for which the pIC50 is 6.00 with OCI-AML-1, 5.80 in the experiment on OCI-AML-2 and 5.68 in the experiment with SKW3.
